Columns and labels:
B16 melanoma cells = experiment: B16 melanoma lung metastases in mice treated with TA99 antibody, with or without ZM; format: in vivo; conditions: Wt mice, 200 ug TA99 on day +1 plus ZM 10 mg/kg IP twice a day from Day 0; Day +15 (FIG. 17)
Method: Wt and A2a receptor null mice received 1 million B16 melanoma cells IV on day 0. Control mice received not treatment. Treated mice received 200 ug IP of TA99 antibody on days 0, 2, 5. The mice were sacrificed on Day 15 and lung mets were counted.
Wt mice received 1 million B16 melanoma cells on Day 0. On day +1 they received either no treatment or 200 ug of TA99 antibody. Zm treated mice received 10 mg/kg IP of ZM twice a day beginning on Day 0 and continuing for the remainder of the experiment. The mice were evaluated on Day +15.
Wt and A2a receptor null mice received 1 million B16 melanoma cells IV on day 0. Control mice received not treatment. Treated mice received 200 ug IP of TA99 antibody on days 0, 2, 5. The mice were sacrificed on Day 15 and lung metastases were counted. […] Eliminating A2a receptor activity in the mice reduced melanoma metastases by approximately 50% and treatment with the antibody reduced metastases by approximately 60%. However, when knock out mice are treated with the antibody, the level of tumor metastases dropped by approximately 80% when compared to untreated wild type, and by 50% or more when compared to either the knock out or antibody treated wild type mice.

LAG-3 = LAG-3 upregulation in A.E7 T cells (ionomycin or PMA stimulation; CsA); format: cell-based; conditions: ionomycin alone (FIG. 3c)
Source text: FIGS. 3(a)-(f) are graphs showing that A2a receptor signaling promotes the upregulation of LAG-3^+ in vitro. […] Data are representative of 3 independent experiments. 3(c) is a graph of LAG3 upregulation in A.E7 T cells following stimulation with ionomycin or PMA. 3(d) is an image of representative Western blots for phosphor-ERK and total ERK (top and bottom respectively). […] Data are representative of 3 independent experiments. 3(e) is an image of representative Western blots for junB, and actin (top and bottom, respectively). […] Data are representative of 3 independent experiments. 3(f) is an image of representative EMSA for AP-1. […] Data are representative of 3 independent experiments.

| Structure (SMILES) | reduction of average lung metastases, antibody in combination with ZM (B16 melanoma cells) | LAG-3 upregulation (LAG-3) |
| --- | --- | --- |
| Nc1nc(NCCc2ccc(O)cc2)nc2nc(-c3ccco3)nn12 [ZM, 4-(2-[7-amino-2-(2-furyl)[1,2,4]triazolo[2,3-a][1,3,5]triazin-5-ylamino]ethyl)phenol] | approximately 80% |  |
| C[C@H](CCC(=O)O)C[C@H](C)C[C@H](C)C(=O)/C=C(\O)[C@H](C)C[C@H](C)C/C=C/[C@@H](C)[C@@H](O)[C@@H](C)[C@@H](O)C[C@@H]1CC[C@@](C)([C@H]2CC[C@@](C)([C@@H](C)O)O2)O1 [ionomycin] |  | markedly upregulated |
